We go through 1 molecule from US20250163456A1, “AGENT FOR ENHANCING PRODUCTION OF VIRAL VECTOR AND METHOD FOR PRODUCING VIRAL VECTOR” (priority 2022, published 2025).

The structures appear in SMILES notation.

The test system of this experiment is HEK293 cells. Briefly: Evaluation of AAV vector-producing ability by treatment with chemical substance (rAAV1 virus titer by qPCR). The experiment is classed as cell-based, human. Particulars: HEK293 cells producing rAAV1, serum-free E-MEM with chemical substance at various concentrations, 3 days culture, virus titer (v.g.) vs untreated control. As for the experimental part: The cells of the immortalized cell line derived from the human embryonic kidney (HEK293 cells) purchased from ATCC (American Type Culture Collection) were cultured in E-MEM supplemented with 10% fetal bovine serum, penicillin, and streptomycin at 37° C. in the presence of 5% CO2.
The recombinant adeno-associated virus 1 (rAAV1) was prepared with the use of 3 types of plasmids: pAAV-ZsGreen1 (TaKaRa Bio), pAAV2/1, and pHelper. A mixture of 3 types of plasmids for preparation of rAAV1 was adjusted to bring the mixing ratio of DNA to Polyethylenimine Max (PEI:Polysciences) (DNA:PEI) to 1:2 in OPTI-MEM, and the reaction was allowed to proceed at room temperature for 15 minutes. […]
Genome DNA of rAAV1 was extracted to measure the virus titer. […] The virus titer was measured by real-time PCR in triplicate. qPCR was performed using primers targeting Zs-Green 1. […]
In the present example, effects of enhancing production of AAV vectors achieved with the use of chemical substances different from the chemical substances tested in Example 1 were measured in the same manner as in Example 1.
In the present comparative example, effects of enhancing production of AAV vectors were measured in the same manner as in Example 1, except for the use of ascorbic acid (2.5, 5, or 10 μg/ml) disclosed in the examples of WO 2021/138387. […]

As for `O=C1O[C@H]([C@@H](O)CO)C(O)=C1O` [ascorbic acid], the “effects of enhancing the amount of production of AAV vectors” value is recorded as “no significant differences were observed”.
